Results reported in US20260242419A1, “A CYCLIC PEPTIDE FOR TRAPPING INTERLEUKIN-1 BETA” (Merck Sharp & Dohme LLC, priority 2023, published 2026).
Like-named read-outs stand apart in the source and are kept apart here. Starred links: 1 amine or outer side, 2 acyl side, 3 side chain; linkers in the order of their positions; H or OH if unused. Non-standard residues stand in square brackets, D forms with d. Residues, ends and D or L forms follow the SMILES beside them. Trp(4-Cl)(βS-Me) = C[C@@H](c1c[nH]c2cccc(Cl)c12)[C@H](N)C(=O)O; dPro(4R-(4-pyridylmethyl)) = O=C(O)[C@H]1C[C@@H](Cc2ccncc2)CN1; Trp(βS-Me,4-F) = C[C@@H](c1c[nH]c2cccc(F)c12)[C@H](N)C(=O)O; Bip(4'-COOH) = N[C@@H](Cc1ccc(-c2ccc(C(=O)O)cc2)cc1)C(=O)O; Ala(1-bicyclo(1.1.1)pentyl) = N[C@@H](CC12CC(C1)C2)C(=O)O; dPro(4R-Bzl(4-F)) = O=C(O)[C@H]1C[C@@H](Cc2ccc(F)cc2)CN1; Phe(2-Cl,4-COOH) = N[C@@H](Cc1ccc(C(=O)O)cc1Cl)C(=O)O; X4 = O=C([C@H]1[C@@H](Cc2ccncc2)CCN1[*:1])[*:2]; Ala(piperazin-1-yl) = N[C@@H](CN1CCNCC1)C(=O)O; Ala(pyrimidin-5-yl) = N[C@@H](Cc1cncnc1)C(=O)O; Phe(4-COOH) = N[C@@H](Cc1ccc(C(=O)O)cc1)C(=O)O; Ala(4-Pyridazinyl) = N[C@@H](Cc1ccnnc1)C(=O)O; Bip = N[C@@H](Cc1ccc(-c2ccccc2)cc1)C(=O)O; Pro(cis-4-F) = O=C(O)[C@@H]1C[C@H](F)CN1; Ala(4-THP) = N[C@@H](CC1CCOCC1)C(=O)O; Met(O2) = CS(=O)(=O)CC[C@H](N)C(=O)O; AEF = NCCOc1ccc(C[C@H](N)C(=O)O)cc1; X10 = C[C@@](CCN)(N[*:1])C(=O)[*:2]; cisHyp = O=C(O)[C@@H]1C[C@H](O)CN1; d(αMeD) = C[C@@](N)(CC(=O)O)C(=O)O; 4Pal = N[C@@H](Cc1ccncc1)C(=O)O; αMeD = C[C@](N)(CC(=O)O)C(=O)O; d(αMeS) = C[C@@](N)(CO)C(=O)O; αMeK = C[C@](N)(CCCCN)C(=O)O; Dab = NCC[C@H](N)C(=O)O; Aib = CC(C)(N)C(=O)O

Biological target: T1, IL-1β (Homo sapiens, UniProt P01584)
T1 construct: purchased BioLegend 579404
Assay: IL-6 assay in MRC5 cells: inhibition of IL-1β induced IL-6 secretion (AlphaLISA)
Assay type: cell-based
Details: inhibition of IL-1β induced IL-6 secretion in MRC5 cells, read-out: MRC5 IC50
Method in brief: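 Compound was pre-incubated 1 h at ambient temperature with recombinant human IL-1β at 2λ EC80 before adding human lung fibroblast MRC5 cells (3000/well) in EMEM with 0.025% BSA. After overnight culture at 37 °C, 5% CO2, secreted IL-6 in conditioned medium was measured by AlphaLISA; IC50 from 4-parameter logistic fits.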

[1] = compound pre-incubated 1 hour with recombinant human IL-1β

T1 sequence (P01584 117-269): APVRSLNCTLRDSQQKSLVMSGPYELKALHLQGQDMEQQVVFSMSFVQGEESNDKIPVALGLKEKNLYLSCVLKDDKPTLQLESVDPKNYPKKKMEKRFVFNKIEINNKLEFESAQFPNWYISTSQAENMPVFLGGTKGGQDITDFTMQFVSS

| SMILES | IC50 [nM] | IC50 [1] [nM] |
| --- | --- | --- |
| CC(=O)NCCOc1ccc(C[C@@H]2NC(=O)[C@H]3C[C@@H](Cc4ccncc4)CN3C(=O)CNC(=O)[C@H](CCN)NC(=O)[C@H](CCC(N)=O)NC(=O)[C@H](Cc3cncnc3)NC(=O)C(C)(C)NC(=O)[C@H](Cc3c[nH]c4ccccc34)NC(=O)[C@H](CO)NC(=O)C(C)(C)NC(=O)[C@H]([C@@H](C)c3c[nH]c4cccc(F)c34)NC(=O)[C@@H]3C[C@H](F)CN3C(=O)CNC(=O)[C@H](Cc3ccc(C(=O)O)cc3Cl)NC(=O)[C@H](Cc3ccncc3)NC2=O)cc1 [Example 367] (cyclo([AEF](Ac)[4Pal][Phe(2-Cl,4-COOH)]G[Pro(cis-4-F)][Trp(βS-Me,4-F)][Aib]SW[Aib][Ala(pyrimidin-5-yl)]Q[Dab]G[dPro(4R-(4-pyridylmethyl))])) | 0.017 | – |
| C[C@@H](c1c[nH]c2cccc(F)c12)[C@@H]1NC(=O)[C@@H]2C[C@H](F)CN2C(=O)CNC(=O)[C@H](Cc2ccc(C(=O)O)cc2)NC(=O)[C@H](Cc2ccncc2)NC(=O)[C@H](Cc2ccc(-c3ccc(C(=O)O)cc3)cc2)NC(=O)[C@H]2C[C@@H](Cc3ccncc3)CN2C(=O)CNC(=O)[C@H](CCN)NC(=O)[C@H](CCC(N)=O)NC(=O)[C@H](CCS(C)(=O)=O)NC(=O)C(C)(C)NC(=O)[C@H](Cc2c[nH]c3ccccc23)NC(=O)[C@H](CO)NC(=O)C(C)(C)NC1=O [Example 266] (cyclo([Bip(4'-COOH)][4Pal][Phe(4-COOH)]G[Pro(cis-4-F)][Trp(βS-Me,4-F)][Aib]SW[Aib][Met(O2)]Q[Dab]G[dPro(4R-(4-pyridylmethyl))])) | – | 0.019 |
| C[C@@H](c1c[nH]c2cccc(F)c12)[C@@H]1NC(=O)[C@@H]2C[C@H](F)CN2C(=O)CNC(=O)[C@H](Cc2ccc(C(=O)O)cc2)NC(=O)[C@H](Cc2ccncc2)NC(=O)[C@H](Cc2ccc(-c3ccc(C(=O)O)cc3)cc2)NC(=O)[C@H]2C[C@@H](Cc3ccc(F)cc3)CN2C(=O)CNC(=O)[C@H](CCN)NC(=O)[C@H](CCC(N)=O)NC(=O)[C@H](Cc2ccnnc2)NC(=O)C(C)(C)NC(=O)[C@H](Cc2c[nH]c3ccccc23)NC(=O)[C@H](CCC(=O)O)NC(=O)C(C)(C)NC1=O [Example 115] (cyclo([Bip(4'-COOH)][4Pal][Phe(4-COOH)]G[Pro(cis-4-F)][Trp(βS-Me,4-F)][Aib]EW[Aib][Ala(4-Pyridazinyl)]Q[Dab]G[dPro(4R-Bzl(4-F))])) | 0.023 | – |
| C[C@@H](c1c[nH]c2cccc(F)c12)[C@@H]1NC(=O)[C@@H]2C[C@H](F)CN2C(=O)CNC(=O)[C@H](Cc2ccc(C(=O)O)cc2)NC(=O)[C@H](CC23CC(C2)C3)NC(=O)[C@H](Cc2ccc(-c3ccc(C(=O)O)cc3)cc2)NC(=O)[C@H]2C[C@@H](Cc3ccc(F)cc3)CN2C(=O)CNC(=O)[C@H](CCN)NC(=O)[C@H](CCC(N)=O)NC(=O)[C@H](CN2CCNCC2)NC(=O)[C@@](C)(CO)NC(=O)[C@H](Cc2c[nH]c3ccccc23)NC(=O)[C@H](CO)NC(=O)C(C)(C)NC1=O [Example 171] (cyclo([Bip(4'-COOH)][Ala(1-bicyclo(1.1.1)pentyl)][Phe(4-COOH)]G[Pro(cis-4-F)][Trp(βS-Me,4-F)][Aib]SW[d(αMeS)][Ala(piperazin-1-yl)]Q[Dab]G[dPro(4R-Bzl(4-F))])) | 0.016 | – |
| C[C@@H](c1c[nH]c2cccc(Cl)c12)[C@@H]1NC(=O)[C@@H]2C[C@H](F)CN2C(=O)CNC(=O)[C@H](Cc2ccc(C(=O)O)cc2)NC(=O)[C@H](Cc2ccncc2)NC(=O)[C@H](Cc2ccc(-c3ccccc3)cc2)NC(=O)[C@H]2C[C@@H](Cc3ccncc3)CN2C(=O)CNC(=O)[C@H](CCN)NC(=O)[C@H](CCC(N)=O)NC(=O)[C@H](Cc2cncnc2)NC(=O)[C@@](C)(CC(=O)O)NC(=O)[C@H](Cc2c[nH]c3ccccc23)NC(=O)[C@H](CO)NC(=O)C(C)(C)NC1=O [Example 292] (cyclo([Bip][4Pal][Phe(4-COOH)]G[Pro(cis-4-F)][Trp(4-Cl)(βS-Me)][Aib]SW[d(αMeD)][Ala(pyrimidin-5-yl)]Q[Dab]G[dPro(4R-(4-pyridylmethyl))])) | – | 0.015 |
| CO[C@H](C)[C@@H]1NC(=O)[C@@](C)(CC(=O)O)NC(=O)[C@H](Cc2c[nH]c3ccccc23)NC(=O)[C@H](CO)NC(=O)C(C)(C)NC(=O)[C@H]([C@@H](C)c2c[nH]c3cccc(F)c23)NC(=O)[C@@H]2C[C@H](F)CN2C(=O)CNC(=O)[C@H](Cc2ccc(C(=O)O)cc2)NC(=O)[C@H](Cc2ccncc2)NC(=O)[C@H](Cc2ccc(-c3ccc(C(=O)O)cc3)cc2)NC(=O)[C@H]2[C@@H](Cc3ccncc3)CCN2C(=O)CNC(=O)[C@H](CCN)NC(=O)[C@H](CCC(N)=O)NC1=O [Example 227] (cyclo([Bip(4'-COOH)][4Pal][Phe(4-COOH)]G[Pro(cis-4-F)][Trp(βS-Me,4-F)][Aib]SW[d(αMeD)]T(Me)Q[Dab]G[X4])) | 0.014 | – |
| C[C@@H](c1c[nH]c2cccc(F)c12)[C@@H]1NC(=O)[C@@H]2C[C@H](O)CN2C(=O)CNC(=O)[C@H](Cc2ccc(C(=O)O)cc2)NC(=O)[C@H](Cc2ccncc2)NC(=O)[C@H](Cc2ccc(-c3ccc(C(=O)O)cc3)cc2)NC(=O)[C@H]2C[C@@H](Cc3ccncc3)CN2C(=O)CNC(=O)[C@H](CO)NC(=O)[C@H](CCC(N)=O)NC(=O)[C@H](CC2CCOCC2)NC(=O)[C@](C)(CC(=O)O)NC(=O)[C@H](Cc2c[nH]c3ccccc23)NC(=O)[C@H](CO)NC(=O)C(C)(C)NC1=O [Example 199] (cyclo([Bip(4'-COOH)][4Pal][Phe(4-COOH)]G[cisHyp][Trp(βS-Me,4-F)][Aib]SW[αMeD][Ala(4-THP)]QSG[dPro(4R-(4-pyridylmethyl))])) | 0.032 | – |
| C[C@@H](c1c[nH]c2cccc(F)c12)[C@@H]1NC(=O)[C@@H]2C[C@H](F)CN2C(=O)CNC(=O)[C@H](Cc2ccc(C(=O)O)cc2)NC(=O)[C@H](Cc2ccncc2)NC(=O)[C@H](Cc2ccc(-c3ccc(C(=O)O)cc3)cc2)NC(=O)[C@H]2C[C@@H](Cc3ccc(F)cc3)CN2C(=O)CNC(=O)[C@H](CCN)NC(=O)[C@H](CCC(N)=O)NC(=O)[C@H](Cc2cncnc2)NC(=O)C(C)(C)NC(=O)[C@H](Cc2c[nH]c3ccccc23)NC(=O)[C@H](CCC(=O)O)NC(=O)[C@](C)(CCCCN)NC1=O [Example 66] (cyclo([Bip(4'-COOH)][4Pal][Phe(4-COOH)]G[Pro(cis-4-F)][Trp(βS-Me,4-F)][αMeK]EW[Aib][Ala(pyrimidin-5-yl)]Q[Dab]G[dPro(4R-Bzl(4-F))])) | 0.028 | – |
| C[C@@H](c1c[nH]c2cccc(F)c12)[C@@H]1NC(=O)[C@@H]2C[C@H](F)CN2C(=O)CNC(=O)[C@H](Cc2ccc(C(=O)O)cc2)NC(=O)[C@H](Cc2ccncc2)NC(=O)[C@H](Cc2ccc(-c3ccc(C(=O)O)cc3)cc2)NC(=O)[C@H]2C[C@@H](Cc3ccc(F)cc3)CN2C(=O)CNC(=O)[C@H](CCN)NC(=O)[C@H](CCC(N)=O)NC(=O)[C@H](Cc2cncnc2)NC(=O)[C@](C)(CCN)NC(=O)[C@H](Cc2c[nH]c3ccccc23)NC(=O)[C@H](CO)NC(=O)C(C)(C)NC1=O [Example 130] (cyclo([Bip(4'-COOH)][4Pal][Phe(4-COOH)]G[Pro(cis-4-F)][Trp(βS-Me,4-F)][Aib]SW[X10][Ala(pyrimidin-5-yl)]Q[Dab]G[dPro(4R-Bzl(4-F))])) | 0.039 | – |
